Columns and labels:
Assay in all cases: relative viability (nuclei count vs DMSO), 5 days (fraction); higher = more cells survive
[1] = system: IA-LM
Procedure, shortened: (§1)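 A single step with final 0.05% Triton X-100, 1% formaldehyde and 1 ug/ml Hoechst fixed the cells and stained nuclei 5 days after treatment. Lung cancer cell lines in 1536-well plates had been treated by pin tool the day after seeding with one drug alone or a fixed anchor-drug dose plus five library-drug doses (not always all listed) in √10 steps, and nuclei were counted on 4× images. Relative viability is the ratio of nuclei in treated wells to nuclei in vehicle wells, taken as the median of duplicate plates.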

[2] = system: UMC-11
Procedure, shortened: as §1

[3] = system: EBC-1
Procedure, shortened: as §1

[4] = system: EKVX
Procedure, shortened: as §1

[5] = system: NCI-H1299
Procedure, shortened: as §1

[6] = system: A549
Procedure, shortened: as §1

[7] = system: HCC-44
Procedure, shortened: as §1

[8] = system: NCI-H1755
Procedure, shortened: as §1

[9] = system: NCI-H1703
Procedure, shortened: as §1

[10] = system: Calu-6
Procedure, shortened: as §1

[11] = system: HCC-15
Procedure, shortened: as §1

[12] = system: NCI-H1395
Procedure, shortened: as §1

[13] = system: LCLC-103H
Procedure, shortened: as §1

**Q.** For COc1cc2nccc(Oc3ccc(NC(=O)Nc4cc(C)on4)c(Cl)c3)c2cc1OC [Tivozanib] + CS(=O)(=O)CCNCc1ccc(-c2ccc3ncnc(Nc4ccc(OCc5cccc(F)c5)c(Cl)c4)c3c2)o1 [Lapatinib] (partner 2 µM), which relative viability ([1]; first compound 0.01581 µM) is on record?
**A.** 0.564

**Q.** And the relative viability ([1]; first compound 0.05 µM)?
**A.** 0.771

**Q.** And the relative viability ([1]; first compound 0.1581 µM)?
**A.** 0.582

**Q.** What about the relative viability ([1]; first compound 0.5 µM) of the same compound?
**A.** 0.56

**Q.** And the relative viability ([2]; first compound 0.005 µM)?
**A.** 0.901

**Q.** And the relative viability ([2]; first compound 0.01581 µM)?
**A.** 0.983

**Q.** What about the relative viability ([2]; first compound 0.05 µM) of the same compound?
**A.** 1.01

**Q.** What about the relative viability ([2]; first compound 0.5 µM) of the same compound?
**A.** 0.839

**Q.** What about the relative viability ([3]; first compound 0.005 µM) of the same compound?
**A.** 0.231

**Q.** What about the relative viability ([3]; first compound 0.01581 µM) of the same compound?
**A.** 0.216

**Q.** And the relative viability ([3]; first compound 0.05 µM)?
**A.** 0.172

**Q.** What about the relative viability ([3]; first compound 0.1581 µM) of the same compound?
**A.** 0.209

**Q.** And the relative viability ([3]; first compound 0.5 µM)?
**A.** 0.204

**Q.** What about the relative viability ([4]; first compound 0.005 µM) of the same compound?
**A.** 0.224

**Q.** What about the relative viability ([4]; first compound 0.01581 µM) of the same compound?
**A.** 0.199

**Q.** What about the relative viability ([4]; first compound 0.05 µM) of the same compound?
**A.** 0.216

**Q.** And the relative viability ([4]; first compound 0.1581 µM)?
**A.** 0.182

**Q.** And the relative viability ([4]; first compound 0.5 µM)?
**A.** 0.192

**Q.** What about the relative viability ([5]; first compound 0.005 µM) of the same compound?
**A.** 0.921

**Q.** What about the relative viability ([5]; first compound 0.01581 µM) of the same compound?
**A.** 1.03

**Q.** What about the relative viability ([5]; first compound 0.05 µM) of the same compound?
**A.** 0.933

**Q.** And the relative viability ([5]; first compound 0.1581 µM)?
**A.** 0.936

**Q.** What about the relative viability ([5]; first compound 0.5 µM) of the same compound?
**A.** 0.917

**Q.** What about the relative viability ([6]; first compound 0.005 µM) of the same compound?
**A.** 1.09

**Q.** What about the relative viability ([6]; first compound 0.01581 µM) of the same compound?
**A.** 0.987

**Q.** What about the relative viability ([6]; first compound 0.05 µM) of the same compound?
**A.** 0.944

**Q.** And the relative viability ([6]; first compound 0.1581 µM)?
**A.** 1.03

**Q.** And the relative viability ([6]; first compound 0.5 µM)?
**A.** 0.913

**Q.** What about the relative viability ([7]; first compound 0.005 µM) of the same compound?
**A.** 0.95

**Q.** And the relative viability ([7]; first compound 0.01581 µM)?
**A.** 0.991

**Q.** And the relative viability ([7]; first compound 0.05 µM)?
**A.** 1.01

**Q.** What about the relative viability ([7]; first compound 0.1581 µM) of the same compound?
**A.** 0.991

**Q.** And the relative viability ([7]; first compound 0.5 µM)?
**A.** 0.952

**Q.** And the relative viability ([8]; first compound 0.005 µM)?
**A.** 0.945

**Q.** And the relative viability ([8]; first compound 0.01581 µM)?
**A.** 0.991

**Q.** What about the relative viability ([8]; first compound 0.05 µM) of the same compound?
**A.** 1.03

**Q.** And the relative viability ([8]; first compound 0.1581 µM)?
**A.** 1.02

**Q.** What about the relative viability ([8]; first compound 0.5 µM) of the same compound?
**A.** 1.02

**Q.** And the relative viability ([9]; first compound 0.005 µM)?
**A.** 0.44

**Q.** And the relative viability ([9]; first compound 0.01581 µM)?
**A.** 0.255

**Q.** What about the relative viability ([9]; first compound 0.05 µM) of the same compound?
**A.** 0.271

**Q.** What about the relative viability ([9]; first compound 0.1581 µM) of the same compound?
**A.** 0.305

**Q.** And the relative viability ([9]; first compound 0.5 µM)?
**A.** 0.259

**Q.** What about the relative viability ([10]; first compound 0.005 µM) of the same compound?
**A.** 1.01

**Q.** And the relative viability ([10]; first compound 0.01581 µM)?
**A.** 1.08

**Q.** And the relative viability ([10]; first compound 0.05 µM)?
**A.** 1.07

**Q.** What about the relative viability ([10]; first compound 0.1581 µM) of the same compound?
**A.** 1.13

**Q.** And the relative viability ([10]; first compound 0.5 µM)?
**A.** 1.14

**Q.** What about the relative viability ([11]; first compound 0.005 µM) of the same compound?
**A.** 0.83

**Q.** What about the relative viability ([11]; first compound 0.01581 µM) of the same compound?
**A.** 0.899

**Q.** What about the relative viability ([11]; first compound 0.05 µM) of the same compound?
**A.** 0.795

**Q.** And the relative viability ([11]; first compound 0.1581 µM)?
**A.** 0.977

**Q.** And the relative viability ([11]; first compound 0.5 µM)?
**A.** 0.831

**Q.** What about the relative viability ([12]; first compound 0.005 µM) of the same compound?
**A.** 0.939

**Q.** And the relative viability ([12]; first compound 0.01581 µM)?
**A.** 1.11

**Q.** What about the relative viability ([12]; first compound 0.05 µM) of the same compound?
**A.** 1.02

**Q.** What about the relative viability ([12]; first compound 0.1581 µM) of the same compound?
**A.** 0.863

**Q.** What about the relative viability ([12]; first compound 0.5 µM) of the same compound?
**A.** 0.778

**Q.** Which results are given for COc1cc2nccc(Oc3ccc(NC(=O)Nc4cc(C)on4)c(Cl)c3)c2cc1OC [Tivozanib] + C[C@@H](Oc1cc(-c2cnn(C3CCNCC3)c2)cnc1N)c1c(Cl)ccc(F)c1Cl [Crizotinib] (partner 1 µM)?
**A.** relative viability ([1]; first compound 0.01581 µM): 0.716; relative viability ([1]; first compound 0.05 µM): 1.04; relative viability ([1]; first compound 0.1581 µM): 0.507; relative viability ([1]; first compound 0.5 µM): 0.494; relative viability ([2]; first compound 0.005 µM): 0.656; relative viability ([2]; first compound 0.01581 µM): 0.603; relative viability ([2]; first compound 0.05 µM): 0.649; relative viability ([2]; first compound 0.5 µM): 0.536; relative viability ([3]; first compound 0.005 µM): 0.182; relative viability ([3]; first compound 0.01581 µM): 0.186; relative viability ([3]; first compound 0.05 µM): 0.211; relative viability ([3]; first compound 0.1581 µM): 0.207; relative viability ([3]; first compound 0.5 µM): 0.192; relative viability ([4]; first compound 0.005 µM): 0.995; relative viability ([4]; first compound 0.01581 µM): 1.02; relative viability ([4]; first compound 0.05 µM): 0.819; relative viability ([4]; first compound 0.1581 µM): 1.06; relative viability ([4]; first compound 0.5 µM): 1.22; relative viability ([13]; first compound 0.005 µM): 1.04; relative viability ([13]; first compound 0.01581 µM): 0.952; relative viability ([13]; first compound 0.05 µM): 1.04; relative viability ([13]; first compound 0.1581 µM): 1.03; relative viability ([13]; first compound 0.5 µM): 1.06; relative viability ([5]; first compound 0.005 µM): 0.922; relative viability ([5]; first compound 0.01581 µM): 0.971; relative viability ([5]; first compound 0.05 µM): 0.968; relative viability ([5]; first compound 0.1581 µM): 0.991; relative viability ([5]; first compound 0.5 µM): 0.906; relative viability ([6]; first compound 0.005 µM): 0.765; relative viability ([6]; first compound 0.01581 µM): 0.793; relative viability ([6]; first compound 0.05 µM): 0.694; relative viability ([6]; first compound 0.1581 µM): 0.828; relative viability ([6]; first compound 0.5 µM): 0.652; relative viability ([7]; first compound 0.005 µM): 0.743; relative viability ([7]; first compound 0.01581 µM): 0.787; relative viability ([7]; first compound 0.05 µM): 0.82; relative viability ([7]; first compound 0.1581 µM): 0.78; relative viability ([7]; first compound 0.5 µM): 0.811; relative viability ([8]; first compound 0.005 µM): 0.832; relative viability ([8]; first compound 0.01581 µM): 0.845; relative viability ([8]; first compound 0.05 µM): 0.937; relative viability ([8]; first compound 0.1581 µM): 0.872; relative viability ([8]; first compound 0.5 µM): 0.775; relative viability ([9]; first compound 0.005 µM): 0.239; relative viability ([9]; first compound 0.01581 µM): 0.194; relative viability ([9]; first compound 0.05 µM): 0.163; relative viability ([9]; first compound 0.1581 µM): 0.157; relative viability ([9]; first compound 0.5 µM): 0.155; relative viability ([10]; first compound 0.005 µM): 0.778; relative viability ([10]; first compound 0.01581 µM): 0.772; relative viability ([10]; first compound 0.05 µM): 0.706; relative viability ([10]; first compound 0.1581 µM): 0.839; relative viability ([10]; first compound 0.5 µM): 0.711; relative viability ([11]; first compound 0.005 µM): 0.811; relative viability ([11]; first compound 0.01581 µM): 0.824; relative viability ([11]; first compound 0.05 µM): 0.796; relative viability ([11]; first compound 0.1581 µM): 0.79; relative viability ([11]; first compound 0.5 µM): 0.811

From the supplement of paper PMC10307832
